Test [1] relates to Staphylococcus aureus. The experiment in a line: Antibacterial activity against Staphylococcus aureus ATCC25923 incubated for 16 to 20 hrs by broth microdilution method. In kind it is functional. The conditions noted are these: time 16-20 hrs.
Test [2] has as its system Escherichia coli. Description: Antibacterial activity against Escherichia coli ATCC25922 incubated for 16 to 20 hrs by broth microdilution method. In kind it is functional. The conditions noted are these: time 16-20 hrs.

SMILES strings stand for the structures. In brackets after ≈: the same amount, converted by molar mass.

As for `CC[C@H]1OC(=O)C[C@@H](O)[C@H](C)[C@@H](O[C@@H]2O[C@H](C)[C@@H](O)[C@H](N(C)C)[C@H]2O)[C@@H](CCN(Cc2cn(-c3cnc4ccccc4c3)nn2)c2ccccc2)C[C@@H](C)C(=O)/C=C/C(C)=C/[C@@H]1CI`, the MIC in test [1] turned out to be 2 µg/mL (≈ 2.01 µM); in test [2], 32 µg/mL (≈ 32.2 µM).

Take `CC[C@H]1OC(=O)C[C@@H](O)[C@H](C)[C@@H](O[C@@H]2O[C@H](C)[C@@H](O)[C@H](N(C)C)[C@H]2O)[C@@H](CCN(Cc2cn(-c3cnc4ccccc4c3)nn2)c2ccccc2)C[C@@H](C)C(=O)/C=C/C(C)=C/[C@@H]1CNCc1ccccc1`: the minimum inhibitory concentration (MIC) in test [1] stood at 4 µg/mL (≈ 4.11 µM); in test [2] it was 8 µg/mL (≈ 8.23 µM).

For `CCCNC[C@H]1/C=C(C)/C=C/C(=O)[C@H](C)C[C@H](CCN(Cc2cn(-c3cnc4ccccc4c3)nn2)c2ccccc2)[C@H](O[C@@H]2O[C@H](C)[C@@H](O)[C@H](N(C)C)[C@H]2O)[C@@H](C)[C@H](O)CC(=O)O[C@@H]1CC`, the minimum inhibitory concentration (MIC) in test [1] is 2 µg/mL (≈ 2.16 µM); in test [2], 8 µg/mL (≈ 8.66 µM).

With `CC[C@H]1OC(=O)C[C@@H](O)[C@H](C)[C@@H](O[C@@H]2O[C@H](C)[C@@H](O)[C@H](N(C)C)[C@H]2O)[C@@H](CCNCc2cn(-c3cnc4ccccc4c3)nn2)C[C@@H](C)C(=O)/C=C/C(C)=C/[C@@H]1CN(C)CC`, the MIC in test [1] was found to be 0.5 µg/mL (≈ 0.59 µM); in test [2], 4 µg/mL (≈ 4.72 µM).

On to `CCCN(C)C[C@H]1/C=C(C)/C=C/C(=O)[C@H](C)C[C@H](CCN(Cc2cn(-c3cnc4ccccc4c3)nn2)c2ccccc2)[C@H](O[C@@H]2O[C@H](C)[C@@H](O)[C@H](N(C)C)[C@H]2O)[C@@H](C)[C@H](O)CC(=O)O[C@@H]1CC`, for which the MIC in test [1] turned out to be 0.5 µg/mL (≈ 0.533 µM); in test [2], 4 µg/mL (≈ 4.26 µM).

For the compound `CC[C@H]1OC(=O)C[C@@H](O)[C@H](C)[C@@H](O[C@@H]2O[C@H](C)[C@@H](O)[C@H](N(C)C)[C@H]2O)[C@@H](CCNCc2cn(-c3cnc4ccccc4c3)nn2)C[C@@H](C)C(=O)/C=C/C(C)=C/[C@@H]1CN(C)C1CCCCC1`, the MIC in test [1] was 1 µg/mL (≈ 1.11 µM); in test [2], 2 µg/mL (≈ 2.22 µM).

Consider `CC[C@H]1OC(=O)C[C@@H](O)[C@H](C)[C@@H](O[C@@H]2O[C@H](C)[C@@H](O)[C@H](N(C)C)[C@H]2O)[C@@H](CCNCc2cn(-c3cnc4ccccc4c3)nn2)C[C@@H](C)C(=O)/C=C/C(C)=C/[C@@H]1CN(CC)CC`, for which the minimal inhibitory concentration (MIC) in test [1] was found to be 0.5 µg/mL (≈ 0.58 µM); in test [2] it was 2 µg/mL (≈ 2.32 µM).

As to `CC[C@H]1OC(=O)C[C@@H](O)[C@H](C)[C@@H](O[C@@H]2O[C@H](C)[C@@H](O)[C@H](N(C)C)[C@H]2O)[C@@H](CCNCc2cn(-c3cnc4ccccc4c3)nn2)C[C@@H](C)C(=O)/C=C/C(C)=C/[C@@H]1CN1CCCCCCC1`, the minimal inhibitory concentration (MIC) in test [1] worked out at 0.5 µg/mL (≈ 0.554 µM); in test [2], 2 µg/mL (≈ 2.22 µM).

With `CC[C@H]1OC(=O)C[C@@H](O)[C@H](C)[C@@H](O[C@@H]2O[C@H](C)[C@@H](O)[C@H](N(C)C)[C@H]2O)[C@@H](CCNCc2cn(-c3cnc4ccccc4c3)nn2)C[C@@H](C)C(=O)/C=C/C(C)=C/[C@@H]1CI`, the MIC in test [1] is 2 µg/mL (≈ 2.18 µM); in test [2] it was 8 µg/mL (≈ 8.73 µM).

As to `CCCCN(CCCC)C[C@H]1/C=C(C)/C=C/C(=O)[C@H](C)C[C@H](CCN(Cc2cn(-c3cnc4ccccc4c3)nn2)c2ccccc2)[C@H](O[C@@H]2O[C@H](C)[C@@H](O)[C@H](N(C)C)[C@H]2O)[C@@H](C)[C@H](O)CC(=O)O[C@@H]1CC`, the minimum inhibitory concentration (MIC) in test [1] is 1 µg/mL (≈ 1.01 µM); in test [2], 32 µg/mL (≈ 32.2 µM).

As to `CC[C@H]1OC(=O)C[C@@H](O)[C@H](C)[C@@H](O[C@@H]2O[C@H](C)[C@@H](O)[C@H](N(C)C)[C@H]2O)[C@@H](CCN(Cc2cn(-c3cnc4ccccc4c3)nn2)c2ccccc2)C[C@@H](C)C(=O)/C=C/C(C)=C/[C@@H]1CN(C)CC`, the values for the minimum inhibitory concentration (MIC) in test [1] and in test [2] were 0.5 µg/mL (≈ 0.541 µM) and 2 µg/mL (≈ 2.16 µM), respectively.

As to `CC[C@H]1OC(=O)C[C@@H](O)[C@H](C)[C@@H](O[C@@H]2O[C@H](C)[C@@H](O)[C@H](N(C)C)[C@H]2O)[C@@H](CCN(C)Cc2cn(-c3cnc4ccccc4c3)nn2)C[C@@H](C)C(=O)/C=C/C(C)=C/[C@@H]1CO`, the MIC was found to be 1 µg/mL (≈ 1.22 µM) in test [1] and 4 µg/mL (≈ 4.87 µM) in test [2].
